Source: paper PMC7288171, “Synergistic Effects of Thiosemicarbazides with Clinical Drugs against S. aureus” (Molecules, 2020)
≈ marks a conversion by molar mass, not a printed value. Like-named read-outs stand apart in the source and are kept apart here.

How the values were obtained:
[1] = test system: human foreskin fibroblast Hs27 cells (CRL-1634); experiment: MTT cytotoxicity assay; format: cell-based; settings: Homo sapiens, 24 h of treatment
Procedure: (§1) A critical factor in research and development of new antibacterial agents is their abilities to selectively target bacterial cells without toxicity to mammalian cells. Thus, in order to test if antibacterial activity of title thiosemicarbazides is not due to their general toxicity, their effect on mammalian cell viability was assessed using human foreskin fibroblast Hs27 cells (CRL-1634) via MTT assay.
(§2) Cytotoxic properties of the compounds were evaluated using human foreskin fibroblast cells Hs27 (ATCC CRL-1634) (ATCC, Manassas, VA, USA) that were cultured in DMEM-high glucose (Sigma Aldrich, St. Louis, MO, USA). Medium was supplemented with 10% fetal bovine serum (FBS, Sigma Aldrich), 100 U/mL of penicillin, and […] of streptomycin (PenStrep, Sigma Aldrich, St. Louis, MO, USA). Cells were incubated at 37 °C in a humidified atmosphere of 5% CO2. Stock solutions of the tested compounds were prepared dissolving in a sterile dimethyl sulfoxide (DMSO) to the concentration of 50 mg/mL. The cells were seeded into 96-well sterile plates (Nunc) at a cell density of 1 × 10^5 cells/mL. After 24 h of incubation, the medium was removed from each well, and then cells were incubated for the next 24 h with tested compounds (in a fixed dose of 25 µg/mL) in DMEM-high glucose containing 2% FBS. Control cells were cultured only with medium containing 2% addition of FBS. Cytotoxicity of the compounds was evaluated using MTT assay, which is based on the conversion of 3-(4,5-dimethylthiazol-2-yl)-2,5- diphenyltetrazolium bromide (MTT) into dark-blue formazan crystals. Briefly, after 24-h incubation of cells with varying concentrations of the tested compounds, culture medium was removed from the plates. Cells were washed with PBS, and then 100 µL of medium containing 10% MTT solution (5 mg/mL) was added to each well. Cells were incubated for the next 3 h at 37 °C in an atmosphere of 5% CO2. Next, 100 µL (per well) of 10% sodium dodecyl sulfate (SDS) buffer solution was added to dissolve formazan crystals and after an overnight incubation the absorbance was measured at 570 nm using a microplate reader (Epoch, BioTek Instruments, Inc., Winooski, VT, USA).

MTT cytotoxicity assay = format: cell-based, human; settings: human, Hs27 foreskin fibroblast cells (ATCC CRL-1634), 25 µg/mL, 24 h, vehicle control = 100%
Procedure: as §1, §2

MSSA-2 = experiment: MIC, clinical isolate of S. aureus; format: cell-based; settings: Staphylococcus aureus
Procedure: (§3) The antibacterial activity of the thiosemicarbazides 1–9 and antibiotics (amoxicillin, gentamicin, levofloxacin, linezolid, and vancomycin) was tested on the Gram-positive strains (Microbiologics, St. Cloud, MN, USA) (S. aureus ATCC 25923, S. aureus ATCC 6538, S. epidermidis ATCC 12228, B. subtilis ATCC 6633, B. cereus ATCC 10876, M. luteus ATCC 10240), the Gram-negative strains (Microbiologics, St. Cloud, MN, USA) (E. coli ATCC 25922, K. pneumoniae ATCC 13883, P. mirabilis ATCC 12453, P. aeruginosa ATCC 9027), and clinical isolates of S. aureus (Medical University of Lublin, Lublin, Poland) (MSSA-1, MSSA-2, MSSA-3, MSSA-4, MRSA-1).

MRSA-1 = experiment: MIC, clinical isolate of S. aureus; format: cell-based; settings: Staphylococcus aureus
Procedure: as §3

MSSA-1 = experiment: MIC, clinical isolate of S. aureus; format: cell-based; settings: Staphylococcus aureus
Procedure: as §3

MSSA-4 = experiment: MIC, clinical isolate of S. aureus; format: cell-based; settings: Staphylococcus aureus
Procedure: as §3

MSSA-3 = experiment: MIC, clinical isolate of S. aureus; format: cell-based; settings: Staphylococcus aureus
Procedure: as §3

S. aureus DNA gyrase = molecular target: T1, S. aureus DNA gyrase (Staphylococcus aureus, UniProt P0A0K8+P20831); experiment: Gyrase supercoiling assay; format: biochemical
T1 construct: purchased Inspiralis, Norwich, UK
T1 sequence (P20831 whole entry): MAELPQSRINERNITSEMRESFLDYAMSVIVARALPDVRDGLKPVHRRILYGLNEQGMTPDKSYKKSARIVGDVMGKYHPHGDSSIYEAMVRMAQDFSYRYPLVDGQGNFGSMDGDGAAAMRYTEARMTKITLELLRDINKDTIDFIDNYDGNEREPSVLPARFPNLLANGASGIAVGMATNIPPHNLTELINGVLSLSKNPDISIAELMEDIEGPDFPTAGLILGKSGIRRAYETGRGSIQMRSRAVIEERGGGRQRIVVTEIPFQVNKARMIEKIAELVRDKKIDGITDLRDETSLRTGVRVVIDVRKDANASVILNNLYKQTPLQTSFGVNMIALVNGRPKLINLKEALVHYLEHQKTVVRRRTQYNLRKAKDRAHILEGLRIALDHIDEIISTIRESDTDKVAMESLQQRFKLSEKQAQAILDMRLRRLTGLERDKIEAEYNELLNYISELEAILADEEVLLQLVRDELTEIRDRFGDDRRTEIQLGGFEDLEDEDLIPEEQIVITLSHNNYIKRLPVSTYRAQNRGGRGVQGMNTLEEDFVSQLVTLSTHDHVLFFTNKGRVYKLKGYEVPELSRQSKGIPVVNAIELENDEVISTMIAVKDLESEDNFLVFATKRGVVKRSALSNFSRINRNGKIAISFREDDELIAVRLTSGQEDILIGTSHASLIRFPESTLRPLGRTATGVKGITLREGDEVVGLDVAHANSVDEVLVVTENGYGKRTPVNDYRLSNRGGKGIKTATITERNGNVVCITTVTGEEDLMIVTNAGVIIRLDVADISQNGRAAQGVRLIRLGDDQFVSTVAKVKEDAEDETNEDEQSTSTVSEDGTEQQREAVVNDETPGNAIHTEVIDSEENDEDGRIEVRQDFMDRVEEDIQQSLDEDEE
T1 sequence (P0A0K8 whole entry): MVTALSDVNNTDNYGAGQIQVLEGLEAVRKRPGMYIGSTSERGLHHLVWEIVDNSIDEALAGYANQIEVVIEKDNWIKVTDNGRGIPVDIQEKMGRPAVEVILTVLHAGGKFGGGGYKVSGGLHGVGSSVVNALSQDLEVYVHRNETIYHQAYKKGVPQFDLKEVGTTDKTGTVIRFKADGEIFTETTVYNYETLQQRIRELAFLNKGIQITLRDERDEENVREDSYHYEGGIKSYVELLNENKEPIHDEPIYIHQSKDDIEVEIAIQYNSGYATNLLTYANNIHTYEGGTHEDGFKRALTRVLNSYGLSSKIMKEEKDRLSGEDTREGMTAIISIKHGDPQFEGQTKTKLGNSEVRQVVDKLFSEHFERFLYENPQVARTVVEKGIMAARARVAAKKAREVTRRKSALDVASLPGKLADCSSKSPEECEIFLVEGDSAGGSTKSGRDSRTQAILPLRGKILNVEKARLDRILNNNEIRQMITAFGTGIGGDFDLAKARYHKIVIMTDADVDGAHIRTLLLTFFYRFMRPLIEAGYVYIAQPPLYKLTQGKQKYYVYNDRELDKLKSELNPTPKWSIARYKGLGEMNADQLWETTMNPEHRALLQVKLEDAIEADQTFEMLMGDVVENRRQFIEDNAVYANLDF
Procedure: Supercoiling assay: The assays were performed using S. aureus Gyrase Supercoiling Assay Kits (Inspiralis, Norwich, UK). Briefly, […] pBR322 plasmid DNA (0.5 µg) was incubated with 1 unit of gyrase, in the dedicated supercoiling assay buffer supplied by the manufacturer, in the presence of varying concentrations of the test compounds. Reactions were carried out at 37 °C for 1 h and then terminated by the addition of equal volume of 2 × STOP Buffer (40% sucrose, 100 mM Tris-Cl pH 7.5, 1 mM EDTA, and 0.5 mg/mL bromophenol blue) and chloroform/iso-amyl alcohol. Samples were vortexed, centrifuged, and run through a 15 cm 1% agarose gel in TAE buffer (40 mM Tris-acetate, 2 mM EDTA) for 3 h at 50 V. Gels were stained with ethidium bromide and visualized under UV light.

S. aureus ATCC 25923 [2] = experiment: Checkerboard broth dilution synergy assay; format: cell-based
Procedure: The microdilution checkerboard method was used to evaluate the synergistic effects between the thiosemicarbazides 1–9 and antibiotics, which were determined as the fractional inhibitory concentration indices (FICIs). For these experiments, amoxicillin, gentamicin, levofloxacin, linezolid, and vancomycin were selected to represent the five antimicrobial classes most commonly used in clinical practice. In this way, a total of 45 combinations of thiosemicarbazide-amoxicillin, thiosemicarbazide-gentamicin, thiosemicarbazide-levofloxacin, thiosemicarbazide-linezolid, and thiosemicarbazide-vancomycin against S. aureus ATCC 25923 were tested to identify in vitro synergy effects.
Interaction of the thiosemicarbazides 1–9 in combination with amoxicillin, gentamicin, levofloxacin, linezolid or vancomycin against S. aureus ATCC 25923 were analyzed using the checkerboard broth dilution method to determine the fractional inhibitory concentration indices (FICIs), calculated as: FIC = MIC of drug A in combination/MIC of drug A alone + MIC of drug B in combination/MIC of drug B alone. The calculated FICIs were interpreted as synergistic (FIC ≤ 0.5), additive (0.5 < FIC < 1), indifferent (1 ≤ FIC < 4.0), or antagonistic (FIC ≥ 4.0). The checkerboard assay included ciprofloxacin-carvedilol combination as positive control, whereas cefuroxime in combination with 4-(4-bromophenyl)-1-(3-fluorobezoyl)thiosemicarbazide served as negative control. The Z-factor value for the bioassay was 0.683.

B. subtilis ATCC 6633 = experiment: MIC, broth microdilution; format: cell-based; settings: Bacillus subtilis, ATCC6633
Procedure: as §3

[3] = test system: S. epidermidis ATCC 12228; experiment: MIC, broth microdilution; format: cell-based; settings: Staphylococcus epidermidis, ATCC12228
Procedure: as §3

B. cereus ATCC 10876 = experiment: MIC, broth microdilution; format: cell-based; settings: Bacillus cereus, ATCC10876
Procedure: as §3

M. luteus ATCC 10240 = experiment: MIC, broth microdilution; format: cell-based; settings: Micrococcus luteus, ATCC10240
Procedure: as §3

S. aureus ATCC 6538 = experiment: MIC, broth microdilution; format: cell-based; settings: Staphylococcus aureus, ATCC6538
Procedure: as §3

S. aureus ATCC 25923 [4] = experiment: MIC, broth microdilution; format: cell-based; settings: Staphylococcus aureus, ATCC25923
Procedure: as §3

[5] = clinical isolate MSSA-2, read-out: MIC
[6] = clinical isolate MRSA-1, read-out: MIC
[7] = clinical isolate MSSA-1, read-out: MIC
[8] = clinical isolate MSSA-4, read-out: MIC
[9] = clinical isolate MSSA-3, read-out: MIC
[10] = B. s. ATCC 6633, compounds 6–9 and antibiotics, read-out: MIC
[11] = S. e. ATCC 12228, compounds 6–9 and antibiotics, read-out: MIC
[12] = B. c. ATCC 10876, compounds 6–9 and antibiotics, read-out: MIC
[13] = M. l. ATCC 10240, compounds 6–9 and antibiotics, read-out: MIC
[14] = S. a. ATCC 6538, compounds 6–9 and antibiotics, read-out: MIC
[15] = S. a. ATCC 25923, compounds 6–9 and antibiotics, read-out: MIC

SMILES | IC50 [1] [µg/mL] | viability at 24 h, 25 µg/mL (MTT cytotoxicity assay) [%] | MIC (MSSA-2; [5]) [µg/mL] | MIC (MRSA-1; [6]) [µg/mL] | MIC (MSSA-1; [7]) [µg/mL] | MIC (MSSA-4; [8]) [µg/mL] | MIC (MSSA-3; [9]) [µg/mL] | MIC (B. subtilis ATCC 6633; [10]) [µg/mL] | MIC [3, 11] [µg/mL] | MIC (B. cereus ATCC 10876; [12]) [µg/mL] | MIC (M. luteus ATCC 10240; [13]) [µg/mL] | MIC (S. aureus ATCC 6538; [14]) [µg/mL] | MIC (S. aureus ATCC 25923 [4]; [15]) [µg/mL] | also measured
O=C(NNC(=S)Nc1ccc(Cl)cc1)c1ccccc1F [compound 6, 4-(4-chlorophenyl)-1-(2-fluorobenzoyl)thiosemicarbazide] | > 25 | 96.8 | > 500 | 500 (≈ 1540 µM) | 250 (≈ 772 µM) | 125 (≈ 386 µM) | 250 (≈ 772 µM) | 500 (≈ 1540 µM) | 250 (≈ 772 µM) | 31.2 (≈ 96.5 µM) | 7.82 (≈ 24.2 µM) | 250 (≈ 772 µM) | 500 (≈ 1540 µM) | inhibition at 50 µM (S. aureus DNA gyrase; 50 µM, read-out: S. aureus Gyrase DNA Inhibition (%) ± SD): 30.8 ± 3.19%; S. aureus Gyrase DNA Inhibition (%) ± SD (S. aureus DNA gyrase; 100 µM): 49.22 ± 3.18%; inhibition at 100 µM (S. aureus DNA gyrase; read-out: S. aureus Gyrase DNA Inhibition (%) ± SD, 100 µM): ~50%; interaction in combination (S. aureus ATCC 25923 [2]; combination with amoxicillin): additive; interaction in combination (S. aureus ATCC 25923 [2]; combination with gentamicin): synergistic; interaction in combination (S. aureus ATCC 25923 [2]; combination with levofloxacin): additive; interaction in combination (S. aureus ATCC 25923 [2]; combination with linezolid): synergistic; interaction in combination (S. aureus ATCC 25923 [2]; combination with vancomycin): additive
CN[C@H](CC(C)C)C(=O)N[C@H]1C(=O)N[C@@H](CC(N)=O)C(=O)N[C@H]2C(=O)N[C@H]3C(=O)N[C@H](C(=O)N[C@H](C(=O)O)c4cc(O)cc(O)c4-c4cc3ccc4O)[C@H](O)c3ccc(c(Cl)c3)Oc3cc2cc(c3O[C@@H]2O[C@H](CO)[C@@H](O)[C@H](O)[C@H]2O[C@H]2C[C@](C)(N)[C@H](O)[C@H](C)O2)Oc2ccc(cc2Cl)[C@H]1O [VA, vancomycin, reference compound] |  |  |  |  |  |  |  |  |  |  |  |  |  | MIC (MSSA-2; MSSA): 0.49 µg/mL (≈ 0.338 µM); MIC (MRSA-1; MRSA): 0.98 µg/mL (≈ 0.676 µM); MIC (MSSA-1; MSSA): 0.49 µg/mL (≈ 0.338 µM); MIC (MSSA-4; MSSA): 0.49 µg/mL (≈ 0.338 µM); MIC (MSSA-3; MSSA): 0.49 µg/mL (≈ 0.338 µM); MIC (B. subtilis ATCC 6633): 0.24 µg/mL (≈ 0.166 µM); MIC [3]: 0.98 µg/mL (≈ 0.676 µM); MIC (B. cereus ATCC 10876): 0.98 µg/mL (≈ 0.676 µM); MIC (M. luteus ATCC 10240): 0.24 µg/mL (≈ 0.166 µM); MIC (S. aureus ATCC 6538): 0.49 µg/mL (≈ 0.338 µM); MIC (S. aureus ATCC 25923 [4]): 0.98 µg/mL (≈ 0.676 µM)
CC(=O)NC[C@H]1CN(c2ccc(N3CCOCC3)c(F)c2)C(=O)O1 [LZD, linezolid, reference compound] |  |  | 1.95 (≈ 5.78 µM) | 1.95 (≈ 5.78 µM) | 1.95 (≈ 5.78 µM) | 1.95 (≈ 5.78 µM) | 0.98 (≈ 2.9 µM) | 0.98 (≈ 2.9 µM) | 0.49 (≈ 1.45 µM) | 0.98 (≈ 2.9 µM) | 0.98 (≈ 2.9 µM) | 0.98 (≈ 2.9 µM) | 1.95 (≈ 5.78 µM) | 
CC1(C)S[C@@H]2[C@H](NC(=O)[C@H](N)c3ccc(O)cc3)C(=O)N2[C@H]1C(=O)O [AMX, amoxicillin, reference compound] |  |  | 0.12 (≈ 0.328 µM) | 31.2 (≈ 85.5 µM) | 1.95 (≈ 5.34 µM) | 31.2 (≈ 85.5 µM) | 0.98 (≈ 2.68 µM) | 0.12 (≈ 0.328 µM) | 7.81 (≈ 21.4 µM) | > 250 | 0.24 (≈ 0.657 µM) | 0.12 (≈ 0.328 µM) | 0.12 (≈ 0.328 µM) | 
C[C@H]1COc2c(N3CCN(C)CC3)c(F)cc3c(=O)c(C(=O)O)cn1c23 [LEV, levofloxacin, reference compound] | > 25 | 101 | 0.24 (≈ 0.664 µM) | 31.2 (≈ 86.5 µM) | 0.12 (≈ 0.332 µM) | 0.12 (≈ 0.332 µM) | 0.12 (≈ 0.332 µM) | 0.12 (≈ 0.332 µM) | 0.12 (≈ 0.332 µM) | 0.12 (≈ 0.332 µM) | 0.98 (≈ 2.71 µM) | 0.24 (≈ 0.664 µM) | 0.24 (≈ 0.664 µM) | inhibition at 100 µM (S. aureus DNA gyrase; 100 µM, read-out: S. aureus Gyrase DNA Inhibition (%) ± SD): 92.4 ± 3.74%
CNC(C)C1CCC(N)C(OC2C(N)CC(N)C(OC3OCC(C)(O)C(NC)C3O)C2O)O1 (stereo not shown) [GN, gentamicin, reference compound] |  |  | 0.49 (≈ 1.03 µM) | 0.98 (≈ 2.05 µM) | 0.98 (≈ 2.05 µM) | 1.95 (≈ 4.08 µM) | 7.81 (≈ 16.4 µM) | 0.24 (≈ 0.503 µM) | 0.12 (≈ 0.251 µM) | 15.6 (≈ 32.7 µM) | 0.98 (≈ 2.05 µM) | 0.98 (≈ 2.05 µM) | 1.95 (≈ 4.08 µM) | 
